Test results from the NIST ThermoML archive (doi:10.1016/j.fluid.2007.12.007).

Test: xn = mol fraction of the nth substance listed
Details: 101 kPa, Liquid

NC=O [formamide] + CCCCO
Details	speed of sound [m/s]	viscosity [mPa·s]
293.15 K, x1 = 0.1093	1302.3	3.225
293.15 K, x1 = 0.2057	1337.7	3.446
293.15 K, x1 = 0.3138	1377	3.598
293.15 K, x1 = 0.4104	1412	3.696
293.15 K, x1 = 0.5115	1448.4	3.754
293.15 K, x1 = 0.6124	1484.4	3.777
293.15 K, x1 = 0.7081	1518	3.77
293.15 K, x1 = 0.8123	1554	3.744
293.15 K, x1 = 0.9086	1586.4	3.708
298.15 K, x1 = 0.1093	1281.2	2.81
298.15 K, x1 = 0.2057	1315.3	3.018
298.15 K, x1 = 0.3138	1353.7	3.181
298.15 K, x1 = 0.4104	1388.3	3.285
298.15 K, x1 = 0.5115	1424.6	3.352
298.15 K, x1 = 0.6124	1461	3.386
298.15 K, x1 = 0.7081	1495.5	3.389
298.15 K, x1 = 0.8123	1533.1	3.379
298.15 K, x1 = 0.9086	1567.9	3.355
303.15 K, x1 = 0.1093	1261.5	2.506
303.15 K, x1 = 0.2057	1294.8	2.693
303.15 K, x1 = 0.3138	1332.6	2.846
303.15 K, x1 = 0.4104	1367.1	2.947
303.15 K, x1 = 0.5115	1403.4	3.003
303.15 K, x1 = 0.6124	1440.3	3.032
303.15 K, x1 = 0.7081	1475.4	3.036
303.15 K, x1 = 0.8123	1515.3	3.019
303.15 K, x1 = 0.9086	1552.5	2.996
308.15 K, x1 = 0.1093	1243.5	2.202
308.15 K, x1 = 0.2057	1275.6	2.371
308.15 K, x1 = 0.3138	1312.7	2.516
308.15 K, x1 = 0.4104	1347	2.616
308.15 K, x1 = 0.5115	1383.6	2.676
308.15 K, x1 = 0.6124	1420.5	2.702
308.15 K, x1 = 0.7081	1456.5	2.705
308.15 K, x1 = 0.8123	1497.9	2.688
308.15 K, x1 = 0.9086	1537.2	2.671
313.15 K, x1 = 0.1093	1223.7	1.92
313.15 K, x1 = 0.2057	1255.5	2.081
313.15 K, x1 = 0.3138	1292.1	2.224
313.15 K, x1 = 0.4104	1326	2.324
313.15 K, x1 = 0.5115	1362.6	2.388
313.15 K, x1 = 0.6124	1399.8	2.418
313.15 K, x1 = 0.7081	1437	2.426
313.15 K, x1 = 0.8123	1479.9	2.423
313.15 K, x1 = 0.9086	1521.9	2.413
318.15 K, x1 = 0.1093	1203.3	1.725
318.15 K, x1 = 0.2057	1234.5	1.874
318.15 K, x1 = 0.3138	1270.8	2.008
318.15 K, x1 = 0.4104	1305	2.106
318.15 K, x1 = 0.5115	1341.3	2.167
318.15 K, x1 = 0.6124	1379.1	2.204
318.15 K, x1 = 0.7081	1417.5	2.217
318.15 K, x1 = 0.8123	1461.9	2.216
318.15 K, x1 = 0.9086	1506.6	2.216
